Values joined by “and” are separate entries in the source; they are usually repeats but may differ in a detail not shown here. Equal entries are not always repeated.
System: 323965-272-R-J2-PDC complex spheroid viability
Assay: Anticancer human tumor 323965-272-R-J2-PDC patient-derived pancreatic carcinoma cell line growth inhibition [CLK]
Conditions: for viability, T/C: stronger effect = lower value
Summary of the method: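 Multi-cell-type spheroids combined patient-derived tumor cells with HUVEC endothelial cells and human mesenchymal stem cells. Paired agents were dosed in half-log steps down from about clinical Cmax, or from 10 microM where Cmax was unknown.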

[1] = curve of first compound, second compound 0.0316 µM
[2] = curve of first compound, second compound 0.1 µM
[3] = curve of first compound, second compound 0.316 µM
[4] = curve of first compound, second compound 1 µM
[5] = curve of first compound, second compound 3.16 µM
[6] = curve of first compound, second compound 10 µM
[7] = second compound 0.0316 µM, first compound 0.00316 µM
[8] = second compound 0.0316 µM, first compound 0.01 µM
[9] = second compound 0.0316 µM, first compound 0.0316 µM
[10] = second compound 0.0316 µM, first compound 0.1 µM
[11] = second compound 0.0316 µM, first compound 0.316 µM
[12] = second compound 0.0316 µM, first compound 1 µM
[13] = second compound 0.1 µM, first compound 0.00316 µM
[14] = second compound 0.1 µM, first compound 0.01 µM
[15] = second compound 0.1 µM, first compound 0.0316 µM
[16] = second compound 0.1 µM, first compound 0.1 µM
[17] = second compound 0.1 µM, first compound 0.316 µM
[18] = second compound 0.1 µM, first compound 1 µM
[19] = second compound 0.316 µM, first compound 0.00316 µM
[20] = second compound 0.316 µM, first compound 0.01 µM
[21] = second compound 0.316 µM, first compound 0.0316 µM
[22] = second compound 0.316 µM, first compound 0.1 µM
[23] = second compound 0.316 µM, first compound 0.316 µM
[24] = second compound 0.316 µM, first compound 1 µM
[25] = second compound 1 µM, first compound 0.00316 µM
[26] = second compound 1 µM, first compound 0.01 µM
[27] = second compound 1 µM, first compound 0.0316 µM
[28] = second compound 1 µM, first compound 0.1 µM
[29] = second compound 1 µM, first compound 0.316 µM
[30] = second compound 1 µM, first compound 1 µM
[31] = second compound 3.16 µM, first compound 0.00316 µM
[32] = second compound 3.16 µM, first compound 0.01 µM
[33] = second compound 3.16 µM, first compound 0.0316 µM
[34] = second compound 3.16 µM, first compound 0.1 µM
[35] = second compound 3.16 µM, first compound 0.316 µM
[36] = second compound 3.16 µM, first compound 1 µM
[37] = second compound 10 µM, first compound 0.00316 µM
[38] = second compound 10 µM, first compound 0.01 µM
[39] = second compound 10 µM, first compound 0.0316 µM
[40] = second compound 10 µM, first compound 0.1 µM
[41] = second compound 10 µM, first compound 0.316 µM
[42] = second compound 10 µM, first compound 1 µM
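Also: spheroids exposed to agents for seven days before readout.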
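For viability, T/C in this document: percent of DMSO vehicle control wells so 100% = untreated growth.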

CCN1CCN(Cc2ccc(Nc3ncc(F)c(-c4cc(F)c5nc(C)n(C(C)C)c5c4)n3)nc2)CC1 + CNC(=O)c1ccc(Nc2nc(OC3CCCC3)c3c(-c4ccc5nc(C)oc5c4)c[nH]c3n2)c(OC)c1
IC50 [1]: > 1000 nM | IC50 [2]: > 1000 nM | IC50 [3]: > 1000 nM | IC50 [4]: < 3.16 nM | IC50 [5]: < 3.16 nM | IC50 [6]: < 3.16 nM | viability, T/C [7]: 90.3% | viability, T/C [8]: 103% | viability, T/C [9]: 86.9% | viability, T/C [10]: 68.4% | viability, T/C [11]: 66.2% | viability, T/C [12]: 74.3% | viability, T/C [13]: 84.9% | viability, T/C [14]: 73.4% | viability, T/C [15]: 60.6% | viability, T/C [16]: 63.1% | viability, T/C [17]: 55.7% | viability, T/C [18]: 67.6% | viability, T/C [19]: 64.1% | viability, T/C [20]: 53.4% | viability, T/C [21]: 54.2% | viability, T/C [22]: 44.2% | viability, T/C [23]: 50.6% | viability, T/C [24]: 57.6% | viability, T/C [25]: 48.5% | viability, T/C [26]: 40.5% | viability, T/C [27]: 45.9% | viability, T/C [28]: 49.4% | viability, T/C [29]: 40.4% | viability, T/C [30]: 61.7% | viability, T/C [31]: 42.8% | viability, T/C [32]: 39.2% | viability, T/C [33]: 37.6% | viability, T/C [34]: 39.8% | viability, T/C [35]: 43.1% | viability, T/C [36]: 46.8% | viability, T/C [37]: 42.7% | viability, T/C [38]: 46.4% | viability, T/C [39]: 41.5% | viability, T/C [40]: 38.5% | viability, T/C [41]: 46% | viability, T/C [42]: 48.5%

CC(=O)O[C@H]1C(=O)[C@@]2(C)[C@H]([C@H](OC(=O)c3ccccc3)[C@]3(O)C[C@H](OC(=O)[C@H](O)[C@@H](NC(=O)c4ccccc4)c4ccccc4)C(C)=C1C3(C)C)[C@]1(OC(C)=O)CO[C@@H]1C[C@@H]2O
viability, T/C (compound 0.0316 µM): 35.3% and 32% | viability, T/C (compound 0.1 µM): 36.8% and 34.2% | viability, T/C (compound 0.316 µM): 33.2% and 32.9% | viability, T/C (compound 1 µM): 34.6% and 33.4% | viability, T/C (compound 3.16 µM): 39.6% and 35.1% | viability, T/C (compound 10 µM): 35.9% and 36.3% | IC50 (curve of compound): < 31.6 nM

C=CC(=O)Nc1cc(Nc2nccc(-c3cn(C)c4ccccc34)n2)c(OC)cc1N(C)CCN(C)C + CNC(=O)c1ccc(Nc2nc(OC3CCCC3)c3c(-c4ccc5nc(C)oc5c4)c[nH]c3n2)c(OC)c1
IC50 [1]: > 300 nM | IC50 [2]: 171 nM | IC50 [3]: 10.9 nM | IC50 [4]: < 0.949 nM | IC50 [5]: < 0.949 nM | IC50 [6]: < 0.949 nM | viability, T/C (second compound 0.0316 µM, first compound 0.000949 µM): 101% | viability, T/C (second compound 0.0316 µM, first compound 0.003 µM): 110% | viability, T/C (second compound 0.0316 µM, first compound 0.00949 µM): 86% | viability, T/C (second compound 0.0316 µM, first compound 0.03 µM): 85.1% | viability, T/C (second compound 0.0316 µM, first compound 0.0949 µM): 81.9% | viability, T/C (second compound 0.0316 µM, first compound 0.3 µM): 83.5% | viability, T/C (second compound 0.1 µM, first compound 0.000949 µM): 70.8% | viability, T/C (second compound 0.1 µM, first compound 0.003 µM): 71.8% | viability, T/C (second compound 0.1 µM, first compound 0.00949 µM): 62.8% | viability, T/C (second compound 0.1 µM, first compound 0.03 µM): 60.1% | viability, T/C (second compound 0.1 µM, first compound 0.0949 µM): 57.1% | viability, T/C (second compound 0.1 µM, first compound 0.3 µM): 44.8% | viability, T/C (second compound 0.316 µM, first compound 0.000949 µM): 54.5% | viability, T/C (second compound 0.316 µM, first compound 0.003 µM): 55.5% | viability, T/C (second compound 0.316 µM, first compound 0.00949 µM): 46.9% | viability, T/C (second compound 0.316 µM, first compound 0.03 µM): 48% | viability, T/C (second compound 0.316 µM, first compound 0.0949 µM): 40.5% | viability, T/C (second compound 0.316 µM, first compound 0.3 µM): 31.6% | viability, T/C (second compound 1 µM, first compound 0.000949 µM): 41.9% | viability, T/C (second compound 1 µM, first compound 0.003 µM): 39% | viability, T/C (second compound 1 µM, first compound 0.00949 µM): 40.7% | viability, T/C (second compound 1 µM, first compound 0.03 µM): 34.4% | viability, T/C (second compound 1 µM, first compound 0.0949 µM): 34.2% | viability, T/C (second compound 1 µM, first compound 0.3 µM): 26.8% | viability, T/C (second compound 3.16 µM, first compound 0.000949 µM): 36.6% | viability, T/C (second compound 3.16 µM, first compound 0.003 µM): 43.6% | viability, T/C (second compound 3.16 µM, first compound 0.00949 µM): 37.6% | viability, T/C (second compound 3.16 µM, first compound 0.03 µM): 34.6% | viability, T/C (second compound 3.16 µM, first compound 0.0949 µM): 28.5% | viability, T/C (second compound 3.16 µM, first compound 0.3 µM): 29% | viability, T/C (second compound 10 µM, first compound 0.000949 µM): 45.3% | viability, T/C (second compound 10 µM, first compound 0.003 µM): 39.3% | viability, T/C (second compound 10 µM, first compound 0.00949 µM): 38.8% | viability, T/C (second compound 10 µM, first compound 0.03 µM): 31.4% | viability, T/C (second compound 10 µM, first compound 0.0949 µM): 32.8% | viability, T/C (second compound 10 µM, first compound 0.3 µM): 27.7%

COc1c(OCCCN2CCOCC2)ccc2c3n(c(=NC(=O)c4cnc(N)nc4)nc12)CCN3
viability, T/C (compound 0.00316 µM): 98.5% and 103% | viability, T/C (compound 0.01 µM): 80.8% and 72.1% | viability, T/C (compound 0.0316 µM): 62% and 54.2% | viability, T/C (compound 0.1 µM): 46.6% and 45.2% | viability, T/C (compound 0.316 µM): 38.4% and 31% | viability, T/C (compound 1 µM): 27.7% and 21.9% | IC50 (curve of compound): 83.6 nM and 48.1 nM

CCc1c2c(nc3ccc(O)cc13)-c1cc3c(c(=O)n1C2)COC(=O)[C@]3(O)CC + CNC(=O)c1ccc(Nc2nc(OC3CCCC3)c3c(-c4ccc5nc(C)oc5c4)c[nH]c3n2)c(OC)c1
IC50 [1]: 7.88 nM | IC50 [2]: 8.14 nM | IC50 [3]: 4.18 nM | IC50 [4]: < 3.16 nM | IC50 [5]: < 3.16 nM | IC50 [6]: < 3.16 nM | viability, T/C [7]: 73.5% | viability, T/C [8]: 42.4% | viability, T/C [9]: 33% | viability, T/C [10]: 30.2% | viability, T/C [11]: 24.4% | viability, T/C [12]: 23.4% | viability, T/C [13]: 61% | viability, T/C [14]: 47.1% | viability, T/C [15]: 39% | viability, T/C [16]: 29.9% | viability, T/C [17]: 25% | viability, T/C [18]: 24% | viability, T/C [19]: 54.1% | viability, T/C [20]: 38.7% | viability, T/C [21]: 30% | viability, T/C [22]: 27.9% | viability, T/C [23]: 18.4% | viability, T/C [24]: 16.8% | viability, T/C [25]: 34.8% | viability, T/C [26]: 25.8% | viability, T/C [27]: 21.9% | viability, T/C [28]: 16.6% | viability, T/C [29]: 15.2% | viability, T/C [30]: 10.9% | viability, T/C [31]: 30.9% | viability, T/C [32]: 30.1% | viability, T/C [33]: 25.3% | viability, T/C [34]: 14.3% | viability, T/C [35]: 17% | viability, T/C [36]: 11.9% | viability, T/C [37]: 30.5% | viability, T/C [38]: 23.6% | viability, T/C [39]: 20.9% | viability, T/C [40]: 16% | viability, T/C [41]: 14.2% | viability, T/C [42]: 8.54%
